Source: ChEMBL document CHEMBL1201862, “PubChem BioAssay data set” (2004)
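Five concentrations, 48 hours, 96-well plates. Here, GI50 denotes the concentration required for 50% inhibition of growth.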 Active and inactive are the calls of the source. No stated cut-off is given here; in the data, active = GI50 up to about 1.1 µM and inactive = higher.

Assays:
Assay in all cases: inhibition of tumour cell growth, NCI panel, 48 h
NCI-H23 = system: NCI-H23
OVCAR-5 = system: OVCAR-5
LOX IMVI = system: LOX IMVI
SK-OV-3 = system: SK-OV-3
RPMI-8226 = system: RPMI-8226
CCRF-CEM = system: CCRF-CEM
HCT-116 = system: HCT-116
COLO 205 = system: COLO 205
MCF7 = system: MCF7
CAKI-1 = system: CAKI-1
OVCAR-8 = system: OVCAR-8
NCI/ADR-RES = system: NCI/ADR-RES
SK-MEL-5 = system: SK-MEL-5
MDA-N = system: MDA-N
SK-MEL-2 = system: SK-MEL-2
SW-620 = system: SW-620
NCI-H460 = system: NCI-H460
HCT-15 = system: HCT-15
SF-268 = system: SF-268
NCI-H226 = system: NCI-H226

Compound | GI50 (NCI-H23) | GI50 (OVCAR-5) | GI50 (LOX IMVI) | GI50 (SK-OV-3) | GI50 (RPMI-8226) | GI50 (CCRF-CEM) | GI50 (HCT-116) | GI50 (COLO 205) | GI50 (MCF7) | GI50 (CAKI-1) | GI50 (OVCAR-8) | GI50 (NCI/ADR-RES) | GI50 (SK-MEL-5) | GI50 (MDA-N) | GI50 (SK-MEL-2) | GI50 (SW-620) | GI50 (NCI-H460) | GI50 (HCT-15) [µM] | GI50 (SF-268) | GI50 (NCI-H226)
CN(CCNCc1cn(C)c2c1ccc1ccccc12)CCNCc1cn(C)c2c1ccc1ccccc12 | 1.64 µM (inactive) | 1.74 µM (inactive) | 1.52 µM (inactive) | 1.76 µM (inactive) | 2.84 µM (inactive) | 0.711 µM (active) | 1.45 µM (inactive) | 0.948 µM (active) | 0.333 µM (active) | 1.73 µM (inactive) | 1.85 µM (inactive) | 1.54 µM (inactive) | 1.87 µM (inactive) | 1.77 µM (inactive) | 1.79 µM (inactive) | 1.35 µM (inactive) | 0.583 µM (active) | 1.46 | 1.58 µM (inactive) | 
CNC(=O)OCC1=C(COC(=O)NC)C(C)N(c2ccccc2)C1 (stereo unspecified) | 38.1 µM (inactive) | 25.4 µM (inactive) | 32.7 µM (inactive) | 42.4 µM (inactive) | 24.6 µM (inactive) | 37.2 µM (inactive) | 39.9 µM (inactive) | 21.2 µM (inactive) | 20.8 µM (inactive) |  | 36.6 µM (inactive) | 46.5 µM (inactive) | 17.1 µM (inactive) | 33.8 µM (inactive) | 22.6 µM (inactive) | 46.1 µM (inactive) | 29 µM (inactive) | 31 | 37.7 µM (inactive) | 11.3 µM (inactive)
Cc1cccc(/C=N/NC(=S)Nc2ccc(Cl)cc2)n1 | 4.38 µM (inactive) | 15.7 µM (inactive) | 1.04 µM (active) | 1.8 µM (inactive) | 1.14 µM (inactive) | 0.695 µM (active) | 1.47 µM (inactive) | 0.658 µM (active) | 0.607 µM (active) | 1.7 µM (inactive) | 3.74 µM (inactive) | 0.527 µM (active) | 0.993 µM (active) | 0.308 µM (active) | 1.35 µM (inactive) | 0.46 µM (active) | 0.635 µM (active) | 0.519 | 2.61 µM (inactive) | 
Nc1nc(N)c2ncn(-c3ccc(Cl)c(Cl)c3)c2n1 | 15.9 µM (inactive) | 42.7 µM (inactive) |  | 24.9 µM (inactive) | 22.4 µM (inactive) | 3.71 µM (inactive) | 16.1 µM (inactive) | 14.9 µM (inactive) | 40.1 µM (inactive) | 16.9 µM (inactive) | 24.5 µM (inactive) | 37.7 µM (inactive) | 31.2 µM (inactive) | 30.9 µM (inactive) | 12.4 µM (inactive) | 42.4 µM (inactive) |  | 26 | 31.7 µM (inactive) | 35.2 µM (inactive)
CC1(C)c2ccccc2C(=O)C12CCC(=O)CC2 | > 100 µM (inactive) | > 100 µM (inactive) | > 100 µM (inactive) | > 100 µM (inactive) |  | > 100 µM (inactive) | > 100 µM (inactive) | > 100 µM (inactive) | > 100 µM (inactive) | > 100 µM (inactive) | > 100 µM (inactive) | > 100 µM (inactive) | > 10 µM (inactive) | > 100 µM (inactive) | > 100 µM (inactive) | > 100 µM (inactive) | > 100 µM (inactive) | > 100 | > 100 µM (inactive) | > 100 µM (inactive)
COC(=O)c1c(C)cccc1C1CN=NC12Cc1ccc(C)cc1C2=O (stereo unspecified) | 39.2 µM (inactive) | > 100 µM (inactive) | 28.6 µM (inactive) |  | 25.6 µM (inactive) | 32.4 µM (inactive) | 25 µM (inactive) |  | 37.2 µM (inactive) | > 100 µM (inactive) | 43.2 µM (inactive) | 23 µM (inactive) | 17.5 µM (inactive) | 41.4 µM (inactive) |  | 41 µM (inactive) | 15 µM (inactive) | 50.2 | 50.7 µM (inactive) | 44.4 µM (inactive)
COc1ccc(P2(=S)OCCOP(=S)(c3ccc(OC)cc3)S2)cc1 (stereo unspecified) | 4.7 µM (inactive) | > 100 µM (inactive) | 2.84 µM (inactive) |  |  | 2.97 µM (inactive) | 3.28 µM (inactive) | 3.56 µM (inactive) | 3.62 µM (inactive) | 2.31 µM (inactive) | 3.47 µM (inactive) | 4.41 µM (inactive) | 3.02 µM (inactive) | 2.29 µM (inactive) | 3.51 µM (inactive) | 4.54 µM (inactive) | 2.65 µM (inactive) | 2.29 | 3.99 µM (inactive) | 5.16 µM (inactive)
COC1(C2c3ccccc3CCN2C(=O)OC(C)(C)C)C(=O)C(c2ccccc2)=C1N(C)C (stereo unspecified) | 23.3 µM (inactive) | 74.5 µM (inactive) |  | 37.9 µM (inactive) |  | 38.9 µM (inactive) | 25.7 µM (inactive) | 18.5 µM (inactive) | 44.8 µM (inactive) | 45.7 µM (inactive) | 68.7 µM (inactive) | 21.1 µM (inactive) | 20.7 µM (inactive) | 21.5 µM (inactive) | 27.3 µM (inactive) | 37.8 µM (inactive) | 29.8 µM (inactive) | 30.9 | 45.1 µM (inactive) | 19.7 µM (inactive)
COc1ccc(C2=C(Cl)C(=O)O/C2=C\c2ccc(OC)c(Br)c2)cc1Cl | 16.3 µM (inactive) | 43.5 µM (inactive) | 58.9 µM (inactive) | 37.1 µM (inactive) | > 100 µM (inactive) | 28.1 µM (inactive) | 23.5 µM (inactive) | > 100 µM (inactive) | 14.6 µM (inactive) | 36.1 µM (inactive) | 22.7 µM (inactive) | 37.8 µM (inactive) | > 100 µM (inactive) | > 100 µM (inactive) | 25.2 µM (inactive) | > 100 µM (inactive) | 27.7 µM (inactive) | 55.2 | 16.5 µM (inactive) | 
C[Si](C)(C)c1ccc(-c2c3ccc(-c4cc(Br)cc(Br)c4)nc3nc3nc(-c4cc(Br)cc(Br)c4)ccc23)cc1 | > 100 µM (inactive) | > 100 µM (inactive) |  | > 100 µM (inactive) | > 100 µM (inactive) |  | > 100 µM (inactive) | > 100 µM (inactive) | > 100 µM (inactive) | > 100 µM (inactive) |  | > 100 µM (inactive) | > 100 µM (inactive) | > 100 µM (inactive) | > 100 µM (inactive) |  | > 100 µM (inactive) | > 100 | > 100 µM (inactive) | > 100 µM (inactive)
C=C[C@@]1(C)CC[C@@H]2[C@@]3(C1)O[C@H]3CC1[C@](C)(C(=O)OC)CCC[C@@]12C (stereo partly specified) | 24.4 µM (inactive) | 16.9 µM (inactive) |  | 27.4 µM (inactive) | 27 µM (inactive) |  | 13.7 µM (inactive) | 16.6 µM (inactive) | 15.6 µM (inactive) | 33.5 µM (inactive) | 21.3 µM (inactive) | 20 µM (inactive) | 17.8 µM (inactive) | 22.1 µM (inactive) | 18.9 µM (inactive) | 23.7 µM (inactive) | 16.4 µM (inactive) | 19.5 | 20.2 µM (inactive) | 
O=c1[nH]c(=O)n(COCc2ccccc2)c2ccc(Br)cc12 |  | > 100 µM (inactive) | > 100 µM (inactive) | > 100 µM (inactive) |  | > 100 µM (inactive) | > 100 µM (inactive) | > 100 µM (inactive) | > 100 µM (inactive) | > 100 µM (inactive) | 90.8 µM (inactive) | 37 µM (inactive) | 99.3 µM (inactive) | > 100 µM (inactive) | > 100 µM (inactive) | > 100 µM (inactive) | 89.5 µM (inactive) | 71.4 |  | 36.3 µM (inactive)
COC(=O)C(NC(=O)CSc1nnc(COc2ccc(Cl)cc2)n1-c1ccccc1)C(C)C (stereo unspecified) | 25.4 µM (inactive) | 28.8 µM (inactive) | 26.2 µM (inactive) | 37.2 µM (inactive) |  | 23.4 µM (inactive) | 13 µM (inactive) | 23.4 µM (inactive) | 40.7 µM (inactive) | 10.3 µM (inactive) | 23.7 µM (inactive) | 22.6 µM (inactive) |  | 16.2 µM (inactive) | 18.7 µM (inactive) | 56.4 µM (inactive) | 33.2 µM (inactive) | 36.7 | 20.7 µM (inactive) | 17 µM (inactive)
O=P(O)(O)OP(=O)(O)O | > 100 µM (inactive) | > 100 µM (inactive) | > 100 µM (inactive) | > 100 µM (inactive) | > 100 µM (inactive) | > 100 µM (inactive) | > 100 µM (inactive) | > 100 µM (inactive) | > 100 µM (inactive) | > 100 µM (inactive) | > 100 µM (inactive) | > 100 µM (inactive) | > 100 µM (inactive) | > 100 µM (inactive) | > 100 µM (inactive) | > 100 µM (inactive) | > 100 µM (inactive) | > 100 | > 100 µM (inactive) | 
CC12CCCC(O)C1CCC1=CC3(CCC12)SCCS3 (stereo unspecified) | > 10 µM (inactive) |  | > 10 µM (inactive) | > 10 µM (inactive) | > 10 µM (inactive) | 5.83 µM (inactive) |  | > 10 µM (inactive) | > 10 µM (inactive) | > 10 µM (inactive) | > 10 µM (inactive) | > 10 µM (inactive) | > 10 µM (inactive) | > 10 µM (inactive) |  | > 10 µM (inactive) |  | > 10 | > 10 µM (inactive) | 
CO[C@H]1C[C@](C)(O)Cc2cc3c(c(O)c21)C(=O)c1c(O)cc2c(c1C3=O)O[C@@H]1O[C@@]2(C)[C@H](O)[C@@H](N(C)C)[C@@H]1O | 0.804 µM (active) | 3.35 µM (inactive) |  | 0.641 µM (active) |  | 0.151 µM (active) | 0.652 µM (active) | 1.96 µM (inactive) | 0.103 µM (active) | 0.151 µM (active) | 0.9 µM (active) | 10 µM (inactive) | 1.16 µM (inactive) | 1.85 µM (inactive) | 2.43 µM (inactive) | 0.55 µM (active) | 0.0295 µM (active) | 1.23 | 1.22 µM (inactive) | 0.59 µM (active)
